Assay results reported in publication PMC11942486, “The Impact of a Quinone Scaffold on Thermo-TRPs Modulation by Dimethylheptyl Phytocannabinoids” (International Journal of Molecular Sciences, 2025).
Read-outs that look alike come from different tables or passages of the source.

Experiments:
rat TRPV3 [1] = target: T1, rat TRPV3 (Rattus norvegicus, UniProt Q4QYD9); parameters: method as in PMID 34440274
T1 construct: expressed in transfected cells
T1 sequence (Q4QYD9 1-791): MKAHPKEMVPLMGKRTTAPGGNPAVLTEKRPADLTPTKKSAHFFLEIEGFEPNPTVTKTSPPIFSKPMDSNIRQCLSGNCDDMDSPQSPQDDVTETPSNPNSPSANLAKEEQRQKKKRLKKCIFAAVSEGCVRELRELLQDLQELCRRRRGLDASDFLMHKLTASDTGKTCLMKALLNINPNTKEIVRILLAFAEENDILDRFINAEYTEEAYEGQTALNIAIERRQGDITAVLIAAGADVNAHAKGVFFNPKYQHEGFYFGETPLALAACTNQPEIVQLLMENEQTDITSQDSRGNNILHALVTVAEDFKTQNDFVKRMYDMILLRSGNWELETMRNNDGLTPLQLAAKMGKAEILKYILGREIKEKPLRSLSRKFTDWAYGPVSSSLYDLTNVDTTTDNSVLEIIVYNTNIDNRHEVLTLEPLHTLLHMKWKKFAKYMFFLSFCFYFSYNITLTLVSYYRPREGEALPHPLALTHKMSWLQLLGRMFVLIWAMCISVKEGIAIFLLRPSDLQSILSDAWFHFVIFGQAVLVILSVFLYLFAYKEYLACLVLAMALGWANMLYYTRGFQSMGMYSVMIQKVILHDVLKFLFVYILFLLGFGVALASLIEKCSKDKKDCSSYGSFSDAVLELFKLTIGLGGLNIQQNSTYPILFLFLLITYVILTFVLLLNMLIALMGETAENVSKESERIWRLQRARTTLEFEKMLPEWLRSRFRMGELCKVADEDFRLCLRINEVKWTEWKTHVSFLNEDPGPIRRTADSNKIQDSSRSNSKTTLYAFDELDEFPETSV

human TRPV1 [2] = target: T2, human TRPV1 (Homo sapiens, UniProt Q8NER1); parameters: method as in PMID 34440274
T2 construct: expressed in transfected cells

rat TRPV2 [3] = target: T3, rat TRPV2 (Rattus norvegicus, UniProt Q9WUD2); parameters: method as in PMID 34440274; conditions: cited from earlier work; for TRPV2 Efficacy (% Ionomycin 4 μM): agonist effect as % of ionomycin 4 μM
T3 construct: expressed in transfected cells
T3 sequence (Q9WUD2 1-761): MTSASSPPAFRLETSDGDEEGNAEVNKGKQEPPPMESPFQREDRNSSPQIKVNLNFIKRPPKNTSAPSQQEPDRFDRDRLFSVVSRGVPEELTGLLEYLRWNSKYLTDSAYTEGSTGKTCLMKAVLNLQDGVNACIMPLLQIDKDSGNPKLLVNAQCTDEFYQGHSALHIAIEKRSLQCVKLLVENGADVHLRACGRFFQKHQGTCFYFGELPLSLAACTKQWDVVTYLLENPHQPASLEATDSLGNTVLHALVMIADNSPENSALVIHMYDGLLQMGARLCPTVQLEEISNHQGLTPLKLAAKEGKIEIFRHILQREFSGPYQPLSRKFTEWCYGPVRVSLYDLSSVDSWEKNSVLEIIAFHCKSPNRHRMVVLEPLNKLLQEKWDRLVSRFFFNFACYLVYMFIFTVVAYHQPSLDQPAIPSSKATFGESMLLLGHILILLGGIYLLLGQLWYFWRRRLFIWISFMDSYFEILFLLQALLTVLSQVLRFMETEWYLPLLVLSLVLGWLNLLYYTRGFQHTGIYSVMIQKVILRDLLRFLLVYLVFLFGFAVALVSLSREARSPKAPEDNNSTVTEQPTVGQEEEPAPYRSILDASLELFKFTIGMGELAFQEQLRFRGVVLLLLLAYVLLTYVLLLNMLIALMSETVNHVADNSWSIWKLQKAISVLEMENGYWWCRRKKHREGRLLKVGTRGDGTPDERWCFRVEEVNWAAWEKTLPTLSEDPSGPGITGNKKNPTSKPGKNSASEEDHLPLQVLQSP

rat TRPV4 [4] = target: T4, rat TRPV4 (Rattus norvegicus, UniProt Q9ERZ8); parameters: method as in PMID 34440274
T4 construct: expressed in transfected cells

rat TRPA1 [5] = target: T5, rat TRPA1 (Rattus norvegicus, UniProt Q6RI86); parameters: method as in PMID 34440274; conditions: cited from earlier work; for TRPA1 Efficacy (% AITC 100 μM): agonist effect as % of AITC 100 μM, HEK-293 rat TRPA1
T5 construct: expressed in transfected cells

rat TRPM8 [6] = target: T6, rat TRPM8 (Rattus norvegicus, UniProt Q8R455); parameters: method as in PMID 34440274; conditions: vs Icilin 0.25 μM; 22 °C; cited from earlier work
T6 construct: expressed in transfected cells

rat TRPV4 [7] = target: T4, rat TRPV4; assay: Thermo-TRP assay: [Ca2+]i elevation (Fluo-4) in HEK-293 cells transfected with TRPV4; type: cell-based
Protocol: (§1) The compounds were tested on HEK-293 cells either stably transfected with rat TRPA1, TRPV2, TRPV3, TRPV4, TRPM8 or human TRPV1 or not-transfected, by performing a continuous monitoring of the intracellular calcium ([Ca^2+]i) elevation during the experiments, following the protocol already described. […] Cell fluorescence before and after the addition of various concentrations of tested compounds was measured, normalizing the effects against the response to ionomycin (IM, 4 μM). The effect on [Ca^2+]i in non-transfected HEK-293 cells were used as the baseline and subtracted from the values obtained from the transfected ones. The efficacy of the agonists was determined by normalizing their effect to the maximum Ca^2+ influx effect on [Ca^2+]i observed with application of 4μM ionomycin. The effects of TRPA1 agonists are expressed as a percentage of the effect obtained with 100 μM allyl isothiocyanate (AITC). In the TRPV3 assay, rat TRPV3-expressing HEK-293 cells were first sensitized with the structurally unrelated agonist 2-aminoethoxydiphenyl borate (100 μM). For the TRPM8, the experiments were carried out at 22 °C. The potency (EC50 values) is determined as the concentration required to produce half-maximal increases in [Ca^2+]i. […] A dose-response curve fitting (sigmoidal dose-response variable slope) and parameter estimation were performed with Graph-Pad Prism 8 (GraphPad Software Inc., San Diego, CA, USA). All determinations were performed at least in triplicate.

rat TRPV3 [8] = target: T1, rat TRPV3; assay: Thermo-TRP assay: [Ca2+]i elevation (Fluo-4) in HEK-293 cells transfected with TRPV3; type: cell-based
Protocol: (§2) The compounds were tested on HEK-293 cells either stably transfected with rat TRPA1, TRPV2, TRPV3, TRPV4, TRPM8 or human TRPV1 or not-transfected, by performing a continuous monitoring of the intracellular calcium ([Ca^2+]i) elevation during the experiments, following the protocol already described. On the day of the experiment, the cells were loaded for 1 h in the dark at room temperature with the fluorescent probe Fluo-4 AM (4 μM in DMSO containing 0.02% Pluronic F-127). The cells were rinsed, resuspended in Tyrode’s solution (145 mM NaCl, 2.5 mM KCl, 1.5 mM CaCl2, 1.2 mM MgCl2, 10 mM D-glucose, and 10 mM HEPES, pH 7.4), and transferred to a quartz cuvette of a spectrofluorimeter (PerkinElmer LS50B; λEX = 488 nm, λEM = 516 nm) equipped with a PTP-1 fluorescence Peltier system (PerkinElmer Life and Analytical Sciences, Waltham, MA, USA) under continuous stirring. Cell fluorescence before and after the addition of various concentrations of tested compounds was measured, normalizing the effects against the response to ionomycin (IM, 4 μM). The effect on [Ca^2+]i in non-transfected HEK-293 cells were used as the baseline and subtracted from the values obtained from the transfected ones. The efficacy of the agonists was determined by normalizing their effect to the maximum Ca^2+ influx effect on [Ca^2+]i observed with application of 4μM ionomycin. The effects of TRPA1 agonists are expressed as a percentage of the effect obtained with 100 μM allyl isothiocyanate (AITC). In the TRPV3 assay, rat TRPV3-expressing HEK-293 cells were first sensitized with the structurally unrelated agonist 2-aminoethoxydiphenyl borate (100 μM). For the TRPM8, the experiments were carried out at 22 °C. The potency (EC50 values) is determined as the concentration required to produce half-maximal increases in [Ca^2+]i. Antagonist/desensitizing behavior is evaluated against the agonist of the TRP analyzed by adding the compounds directly in the quartz cuvette 5 min before stimulation of cells with the agonist (allylisothiocyanate (100 μM) for TRPA1, capsaicin (0.1 μM) for TRPV1, cannabidiol (2 μM) for TRPV2, thymol (100 μM) for TRPV3, GSK1016790A (10 nM) for TRPV4, and icilin (0.25 μM) for TRPM8). The IC50 value is expressed as the concentration exerting a half-maximal inhibition of the agonist effect, taking as 100% the effect on [Ca^2+]i exerted by the agonist alone. A dose-response curve fitting (sigmoidal dose-response variable slope) and parameter estimation were performed with Graph-Pad Prism 8 (GraphPad Software Inc., San Diego, CA, USA). All determinations were performed at least in triplicate.

rat TRPV2 [9] = target: T3, rat TRPV2; assay: Thermo-TRP assay: [Ca2+]i elevation (Fluo-4) in HEK-293 cells transfected with TRPV2; type: cell-based
Protocol: as §2

rat TRPM8 [10] = target: T6, rat TRPM8; assay: Thermo-TRP assay: [Ca2+]i elevation (Fluo-4) in HEK-293 cells transfected with TRPM8; type: cell-based
Protocol: as §1

rat TRPA1 [11] = target: T5, rat TRPA1; assay: Thermo-TRP assay: [Ca2+]i elevation (Fluo-4) in HEK-293 cells transfected with TRPA1; type: cell-based
Protocol: as §1

human TRPV1 [12] = target: T2, human TRPV1; assay: Thermo-TRP assay: [Ca2+]i elevation (Fluo-4) in HEK-293 cells transfected with TRPV1; type: cell-based
Protocol: as §1

[13] = agonist effect as % of ionomycin 4 μM; cited from earlier work
[14] = read-out: IC50 TRPV1; vs Capsaicin 0.1 μM; cited from earlier work
[15] = read-out: IC50 TRPV4; vs GSK1016790A 10 nM; cited from earlier work
[16] = antagonist/desensitizing, vs Thymol 100 μM; cited from earlier work
[17] = vs Capsaicin 0.1 μM; read-out: IC50 TRPV1; cited from earlier work
[18] = vs GSK1016790A 10 nM; read-out: IC50 TRPV4; cited from earlier work

T5 sequence (Q6RI86 whole entry): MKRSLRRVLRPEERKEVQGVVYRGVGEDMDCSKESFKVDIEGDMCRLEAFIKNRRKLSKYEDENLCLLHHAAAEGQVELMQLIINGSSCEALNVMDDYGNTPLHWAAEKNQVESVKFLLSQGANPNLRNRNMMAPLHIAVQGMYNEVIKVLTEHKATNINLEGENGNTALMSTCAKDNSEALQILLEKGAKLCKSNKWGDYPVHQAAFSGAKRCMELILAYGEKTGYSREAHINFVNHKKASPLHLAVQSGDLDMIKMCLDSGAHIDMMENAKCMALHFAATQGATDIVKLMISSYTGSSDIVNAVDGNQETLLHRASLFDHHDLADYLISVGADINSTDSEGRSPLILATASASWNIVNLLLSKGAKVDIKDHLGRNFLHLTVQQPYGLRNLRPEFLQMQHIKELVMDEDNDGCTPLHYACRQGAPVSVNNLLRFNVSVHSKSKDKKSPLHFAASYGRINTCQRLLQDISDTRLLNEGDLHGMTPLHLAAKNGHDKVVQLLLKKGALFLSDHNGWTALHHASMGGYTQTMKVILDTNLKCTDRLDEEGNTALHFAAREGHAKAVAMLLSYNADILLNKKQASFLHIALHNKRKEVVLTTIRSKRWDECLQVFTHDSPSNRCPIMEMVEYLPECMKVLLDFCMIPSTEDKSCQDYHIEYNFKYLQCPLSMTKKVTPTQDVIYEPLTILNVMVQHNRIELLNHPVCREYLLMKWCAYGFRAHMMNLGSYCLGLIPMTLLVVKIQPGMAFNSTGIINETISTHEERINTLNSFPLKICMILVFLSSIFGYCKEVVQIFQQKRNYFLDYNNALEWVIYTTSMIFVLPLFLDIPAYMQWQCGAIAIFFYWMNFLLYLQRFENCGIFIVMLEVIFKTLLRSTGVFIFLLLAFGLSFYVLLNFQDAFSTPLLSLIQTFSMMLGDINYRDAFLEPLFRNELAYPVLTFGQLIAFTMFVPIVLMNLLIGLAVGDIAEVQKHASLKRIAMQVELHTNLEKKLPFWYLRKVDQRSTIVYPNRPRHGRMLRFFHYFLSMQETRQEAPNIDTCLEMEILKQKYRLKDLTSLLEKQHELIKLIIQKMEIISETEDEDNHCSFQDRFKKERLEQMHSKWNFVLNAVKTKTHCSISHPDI
T4 sequence (Q9ERZ8 whole entry): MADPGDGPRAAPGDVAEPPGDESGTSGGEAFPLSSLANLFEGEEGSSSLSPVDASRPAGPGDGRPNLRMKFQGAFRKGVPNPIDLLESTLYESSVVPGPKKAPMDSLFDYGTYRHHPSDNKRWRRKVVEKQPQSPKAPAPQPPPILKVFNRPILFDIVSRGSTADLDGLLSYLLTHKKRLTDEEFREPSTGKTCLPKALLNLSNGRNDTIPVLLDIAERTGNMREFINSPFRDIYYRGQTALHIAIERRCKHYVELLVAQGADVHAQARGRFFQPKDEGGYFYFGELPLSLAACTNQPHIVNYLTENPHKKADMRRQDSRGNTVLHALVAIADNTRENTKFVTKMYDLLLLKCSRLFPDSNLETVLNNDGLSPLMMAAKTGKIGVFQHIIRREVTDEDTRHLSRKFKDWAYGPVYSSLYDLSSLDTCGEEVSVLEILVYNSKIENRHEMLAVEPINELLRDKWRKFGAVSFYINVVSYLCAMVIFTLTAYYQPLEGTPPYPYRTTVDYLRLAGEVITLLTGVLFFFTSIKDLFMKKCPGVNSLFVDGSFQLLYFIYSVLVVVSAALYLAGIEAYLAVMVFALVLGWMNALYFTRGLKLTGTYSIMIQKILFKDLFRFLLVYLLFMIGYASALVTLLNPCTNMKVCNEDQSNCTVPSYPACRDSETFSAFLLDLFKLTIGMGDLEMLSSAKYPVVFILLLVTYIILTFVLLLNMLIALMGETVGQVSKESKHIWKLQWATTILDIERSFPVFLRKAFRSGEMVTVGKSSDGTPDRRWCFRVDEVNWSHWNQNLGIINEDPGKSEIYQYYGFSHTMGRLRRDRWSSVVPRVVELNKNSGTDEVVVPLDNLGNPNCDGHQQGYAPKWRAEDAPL
T2 sequence (Q8NER1 whole entry): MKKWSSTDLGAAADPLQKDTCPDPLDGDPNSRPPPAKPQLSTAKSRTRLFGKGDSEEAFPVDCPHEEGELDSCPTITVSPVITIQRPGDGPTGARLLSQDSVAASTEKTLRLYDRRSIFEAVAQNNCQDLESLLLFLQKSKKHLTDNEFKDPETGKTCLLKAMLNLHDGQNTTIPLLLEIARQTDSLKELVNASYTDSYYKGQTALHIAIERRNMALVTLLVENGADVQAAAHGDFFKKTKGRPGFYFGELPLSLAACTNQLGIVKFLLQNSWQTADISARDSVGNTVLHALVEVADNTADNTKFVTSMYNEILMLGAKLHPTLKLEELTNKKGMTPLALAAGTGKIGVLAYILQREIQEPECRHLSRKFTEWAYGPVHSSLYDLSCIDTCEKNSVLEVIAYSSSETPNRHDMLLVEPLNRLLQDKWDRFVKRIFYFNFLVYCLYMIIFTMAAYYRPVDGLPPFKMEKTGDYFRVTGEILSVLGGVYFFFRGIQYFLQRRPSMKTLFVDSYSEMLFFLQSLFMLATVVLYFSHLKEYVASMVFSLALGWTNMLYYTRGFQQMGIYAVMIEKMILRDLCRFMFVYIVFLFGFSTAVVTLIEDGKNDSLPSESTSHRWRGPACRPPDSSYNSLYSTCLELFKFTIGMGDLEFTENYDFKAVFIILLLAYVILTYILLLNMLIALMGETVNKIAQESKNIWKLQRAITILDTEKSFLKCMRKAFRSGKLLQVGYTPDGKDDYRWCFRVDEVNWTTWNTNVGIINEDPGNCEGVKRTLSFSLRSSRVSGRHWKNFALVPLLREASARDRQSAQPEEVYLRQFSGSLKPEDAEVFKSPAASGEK
T6 sequence (Q8R455 whole entry): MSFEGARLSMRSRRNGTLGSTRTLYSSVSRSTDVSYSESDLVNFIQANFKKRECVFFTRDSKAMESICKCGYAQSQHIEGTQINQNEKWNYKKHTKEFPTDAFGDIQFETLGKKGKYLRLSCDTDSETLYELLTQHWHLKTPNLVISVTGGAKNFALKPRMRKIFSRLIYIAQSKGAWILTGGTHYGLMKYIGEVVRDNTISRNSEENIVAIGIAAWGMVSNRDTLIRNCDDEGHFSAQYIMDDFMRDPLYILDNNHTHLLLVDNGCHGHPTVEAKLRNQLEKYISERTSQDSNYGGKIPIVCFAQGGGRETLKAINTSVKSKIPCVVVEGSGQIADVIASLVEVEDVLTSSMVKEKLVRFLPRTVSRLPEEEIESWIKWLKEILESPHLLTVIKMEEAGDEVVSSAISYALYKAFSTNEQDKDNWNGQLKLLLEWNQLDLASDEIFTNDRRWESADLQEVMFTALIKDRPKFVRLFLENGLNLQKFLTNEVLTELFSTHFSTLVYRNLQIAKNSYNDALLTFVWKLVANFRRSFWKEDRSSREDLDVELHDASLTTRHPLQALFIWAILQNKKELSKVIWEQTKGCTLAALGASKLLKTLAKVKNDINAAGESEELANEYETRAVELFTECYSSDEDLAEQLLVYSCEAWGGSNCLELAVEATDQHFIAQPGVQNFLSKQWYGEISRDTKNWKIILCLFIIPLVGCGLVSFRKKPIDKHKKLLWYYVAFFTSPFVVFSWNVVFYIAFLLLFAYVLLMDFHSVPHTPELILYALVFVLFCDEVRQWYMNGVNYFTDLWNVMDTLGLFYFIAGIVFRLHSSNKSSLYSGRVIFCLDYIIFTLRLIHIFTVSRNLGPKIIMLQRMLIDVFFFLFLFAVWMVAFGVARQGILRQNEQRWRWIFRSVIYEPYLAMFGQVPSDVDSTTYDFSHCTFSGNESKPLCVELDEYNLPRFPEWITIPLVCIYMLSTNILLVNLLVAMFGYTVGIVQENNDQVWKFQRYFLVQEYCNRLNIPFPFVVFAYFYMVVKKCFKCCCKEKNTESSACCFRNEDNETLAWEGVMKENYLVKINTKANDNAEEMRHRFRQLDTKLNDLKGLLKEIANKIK

Structure (SMILES)	TRPV3 Efficacy (% Ionomycin 4 μM) (rat TRPV3 [1]; [13]) [%]	IC50 (human TRPV1 [2]; [14]) [µM]	TRPV2 Efficacy (% Ionomycin 4 μM) (rat TRPV2 [3]) [%]	IC50 (rat TRPV4 [4]; [15]) [µM]	TRPA1 Efficacy (% AITC 100 μM) (rat TRPA1 [5]) [%]	IC50 (rat TRPV3 [1]; [16]) [µM]	IC50 (human TRPV1 [2]; [17]) [µM]	IC50 (rat TRPV4 [4]; [18]) [µM]	also measured
CCCCCCC(C)(C)c1cc(O)c2c(c1)OC(C)(C)c1ccc(C)cc1-2 [9a, DMH-CBN]	20.9 ± 3.0	> 100	10.5 ± 0.02	> 100	132.3 ± 7.9	–	–	–	EC50 (rat TRPV3 [1]; read-out: TRPV3 Potency EC50; half-maximal increase in [Ca2+]i; cited from earlier work): 41.4 ± 21.6 µM; IC50 (rat TRPV2 [3]; read-out: IC50 TRPV2, vs CBD 2 μM): > 50 µM; EC50 (rat TRPV2 [3]; read-out: TRPV2 Potency EC50, half-maximal increase in [Ca2+]i): 0.25 ± 0.03 µM
CCCCCCC(C)(C)c1cc(O)c2c(c1)OC(C)(C)[C@@H]1CC=C(C)C[C@@H]21 [6a, DMH-Δ⁸-THC]	53.8 ± 1.6	> 100	<10	> 100	124.2 ± 4.0	–	–	–	–
CCCCCCC(C)(C)c1cc(O)c(C/C=C(\C)CCC=C(C)C)c(O)c1 [7a, DMH-CBG]	64.6 ± 4.8	–	65.3 ± 0.7	–	99.2 ± 4.5	> 30	> 100	–	–
C=C(C)[C@@H]1CCC(C)=C[C@H]1c1c(O)cc(C(C)(C)CCCCCC)cc1O [5a, DMH-CBD]	15.8 ± 0.4	–	<10	–	133.4 ± 5.3	> 30	> 100	> 100	–
CCCCCCC(C)(C)c1cc(O)c2c(c1)OC(C)(CCC=C(C)C)C=C2 (centres unmarked) [8a, DMH-CBC]	41.6 ± 1.8	–	76.1 ± 0.6	–	120.4 ± 2.8	> 50	> 100	> 100	IC50 (rat TRPM8 [6]): > 100 µM; EC50 (rat TRPV3 [1]; half-maximal increase in [Ca2+]i; read-out: TRPV3 Potency EC50; cited from earlier work): > 50 µM; IC50 (rat TRPA1 [5]; read-out: IC50 TRPA1, antagonist/desensitizing, vs AITC 100 μM): 0.37 µM
CCCCCCC(C)(C)C1=CC2=C(C(=O)C1=O)c1cc(C)ccc1C(C)(C)O2 [9b]	–	–	–	–	–	–	–	–	IC50 (rat TRPV4 [7]): > 100 µM; TRPV3 Efficacy (% Ionomycin 4 μM) (rat TRPV3 [8]; agonist effect as % of ionomycin 4 μM, cells sensitized with 2-aminoethoxydiphenyl borate 100 μM): 32.5 ± 0.65%; IC50 (rat TRPV3 [8]; antagonist/desensitizing, vs Thymol 100 μM): 19.4 ± 3.5 µM; EC50 (rat TRPV3 [8]; half-maximal increase in [Ca2+]i, read-out: TRPV3 Potency EC50): 1.15 ± 0.15 µM; TRPV2 Efficacy (% Ionomycin 4 μM) (rat TRPV2 [9]; agonist effect as % of ionomycin 4 μM): 23.4 ± 3.7%; EC50 (rat TRPV2 [9]; half-maximal increase in [Ca2+]i, read-out: TRPV2 Potency EC50): 2 ± 1.6 µM; IC50 (rat TRPV2 [9]; vs CBD 2 μM): 5.2 ± 0.6 µM; IC50 (rat TRPM8 [10]): > 100 µM; IC50 (rat TRPA1 [11]; IC50 TRPA1, antagonist/desensitizing, added 5 min before AITC 100 μM): 15.1 ± 2.4 µM; TRPA1 Efficacy (% AITC 100 μM) (rat TRPA1 [11]; agonist effect as % of AITC 100 μM, HEK-293 rat TRPA1): 20.5%; IC50 (human TRPV1 [12]): > 100 µM
